Measured values reported in PubChem BioAssay AID330 (DTP/NCI, 2004).
Where “and” joins values, the source holds several entries; their conditions need not be identical. Identical values can stand only once. Inconclusive results and toxic doses are left out.

Test system: P388 leukemia ip, CD2F1 mice, survival T/C
Experiment: NCI In Vivo Anticancer Drug Screen. Data for tumor model P388 Leukemia (intraperitoneal) in CD2F1 (CDF1) mice
Settings: endpoint: median survival time, higher = longer survival
Outline: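 Mice carrying the transplanted tumor received test compound or vehicle. Survival was recorded in each group, and the value is the treated-group measurement divided by that of the vehicle-treated control group.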

[1] = dose: 60.0 mg/kg/injection, schedule: Q01DX005 (ip), vehicle: saline with Tween-80
[2] = dose: 120.0 mg/kg/injection, schedule: Q01DX005 (ip), vehicle: saline with Tween-80
[3] = dose: 12.5 mg/kg/injection, schedule: Q01DX009 (ip), vehicle: saline with Tween-80
[4] = dose: 25.0 mg/kg/injection, schedule: Q01DX009 (ip), vehicle: saline with Tween-80
[5] = dose: 50.0 mg/kg/injection, schedule: Q01DX009 (ip), vehicle: saline with Tween-80

CC(C)(C)c1cc(C(O)(C(F)(F)F)C(F)(F)F)c2c(c1)C(C(F)(F)F)(C(F)(F)F)OS2(=O)=O
T/C (dose: 25.0 mg/kg/injection, schedule: Q01DX005 (ip), vehicle: Klucel (hydroxypropylcellulose) (HPC)): 93 % of control | T/C (dose: 50.0 mg/kg/injection, schedule: Q01DX005 (ip), vehicle: Klucel (hydroxypropylcellulose) (HPC)): 103 % of control | T/C (dose: 100.0 mg/kg/injection, schedule: Q01DX005 (ip), vehicle: Klucel (hydroxypropylcellulose) (HPC)): 92 % of control | T/C (dose: 200.0 mg/kg/injection, schedule: Q01DX005 (ip), vehicle: Klucel (hydroxypropylcellulose) (HPC)): 91 % of control

O=c1[nH]c2cc(Cl)ccc2nc1/C=C(\O)c1ccccn1
T/C (dose: 60.0 mg/kg/injection, schedule: Q01DX005 (ip), vehicle: Klucel (hydroxypropylcellulose) (HPC)): 92 % of control | T/C (dose: 120.0 mg/kg/injection, schedule: Q01DX005 (ip), vehicle: Klucel (hydroxypropylcellulose) (HPC)): 91 % of control | T/C (dose: 240.0 mg/kg/injection, schedule: Q01DX005 (ip), vehicle: Klucel (hydroxypropylcellulose) (HPC)): 93 % of control

O=C(Cc1ccc2c(c1)OCO2)c1ccc(O)cc1O
T/C [1]: 99 % of control | T/C [2]: 105 % of control | T/C (dose: 240.0 mg/kg/injection, schedule: Q01DX005 (ip), vehicle: saline with Tween-80): 98 % of control

Cc1c2oc3c(C)c([N+](=O)[O-])cc(C(=O)NC4C(=O)NC(C(C)C)C(=O)N5CCCC5C(=O)N(C)CC(=O)N(C)C(C(C)C)C(=O)OC4C)c3nc-2c(C(=O)NC2C(=O)NC(C(C)C)C(=O)N3CCCC3C(=O)N(C)CC(=O)N(C)C(C(C)C)C(=O)OC2C)c(N)c1=O (stereo not drawn)
T/C (dose: 0.01 mg/kg/injection, schedule: Q01DX009 (ip), vehicle: Klucel (hydroxypropylcellulose) (HPC)): 90 % of control | T/C (dose: 0.02 mg/kg/injection, schedule: Q01DX009 (ip), vehicle: Klucel (hydroxypropylcellulose) (HPC)): 106 % of control | T/C (dose: 0.04 mg/kg/injection, schedule: Q01DX009 (ip), vehicle: Klucel (hydroxypropylcellulose) (HPC)): 108 % of control | T/C (dose: 0.08 mg/kg/injection, schedule: Q01DX009 (ip), vehicle: Klucel (hydroxypropylcellulose) (HPC)): 120 % of control and 217 % of control | T/C (dose: 0.3 mg/kg/injection, schedule: Q01DX009 (ip), vehicle: Klucel (hydroxypropylcellulose) (HPC)): 218 % of control

CC1(C)OC2C(CCP(=O)(O)O)OC(c3nc(C(N)=O)cs3)C2O1 (stereo not drawn)
T/C (dose: 100.0 mg/kg/injection, schedule: Q04DX003 (ip), vehicle: suspension in saline): 99 % of control | T/C (dose: 200.0 mg/kg/injection, schedule: Q04DX003 (ip), vehicle: suspension in saline): 100 % of control | T/C (dose: 400.0 mg/kg/injection, schedule: Q04DX003 (ip), vehicle: suspension in saline): 119 % of control

COc1cc(C(=O)NCCS(=O)(=O)O)cc(OC)c1OC
T/C (dose: 100.0 mg/kg/injection, schedule: Q01DX009 (ip), vehicle: saline): 109 % of control | T/C (dose: 200.0 mg/kg/injection, schedule: Q01DX009 (ip), vehicle: saline): 109 % of control | T/C (dose: 400.0 mg/kg/injection, schedule: Q01DX009 (ip), vehicle: saline): 105 % of control

COCOCC(N)CS(C)=O (stereo not drawn)
T/C (dose: 50.0 mg/kg/injection, schedule: Q01DX005 (ip), vehicle: water): 105 % of control | T/C (dose: 100.0 mg/kg/injection, schedule: Q01DX005 (ip), vehicle: water): 97 % of control | T/C (dose: 200.0 mg/kg/injection, schedule: Q01DX005 (ip), vehicle: water): 102 % of control

CCCCCCC(C(=O)OCC)P(=O)(OCC)OCC (stereo not drawn)
T/C (dose: 18.75 mg/kg/injection, schedule: Q01DX009 (ip), vehicle: saline sonified): 90 % of control | T/C (dose: 37.5 mg/kg/injection, schedule: Q01DX009 (ip), vehicle: saline sonified): 95 % of control | T/C (dose: 75.0 mg/kg/injection, schedule: Q01DX009 (ip), vehicle: saline sonified): 100 % of control

Cc1nn(C(=O)c2ccccn2)c(-c2ccccc2)c1N=Nc1ccc(S(=O)(=O)Nc2ncccn2)cc1
T/C [1]: 102 % of control | T/C [2]: 100 % of control

CC(C)(C)C(=O)C=C(C(F)(F)F)C(F)(F)F
T/C (dose: 6.25 mg/kg/injection, schedule: Q01DX009 (ip), vehicle: saline): 91 % of control | T/C (dose: 12.5 mg/kg/injection, schedule: Q01DX009 (ip), vehicle: saline): 86 % of control | T/C (dose: 25.0 mg/kg/injection, schedule: Q01DX009 (ip), vehicle: saline): 113 % of control

c1ccc(CCn2cccc/c2=N/C(=NC2CCCCC2)NC2CCCCC2)cc1
T/C (dose: 100.0 mg/kg/injection, schedule: Q01DX001 (ip), vehicle: suspension in saline): 91 % of control | T/C (dose: 200.0 mg/kg/injection, schedule: Q01DX001 (ip), vehicle: suspension in saline): 88 % of control | T/C (dose: 400.0 mg/kg/injection, schedule: Q01DX001 (ip), vehicle: suspension in saline): 92 % of control

CN(C=C(C#N)C#N)c1ccccc1
T/C [3]: 103 % of control | T/C [4]: 99 % of control | T/C [5]: 99 % of control

COc1cccc(C=Nc2ccccc2O)c1O.[O]=[V]
T/C (dose: 6.25 mg/kg/injection, schedule: Q01DX009 (ip), vehicle: Klucel (hydroxypropylcellulose) (HPC)): 98 % of control and 107 % of control | T/C (dose: 12.5 mg/kg/injection, schedule: Q01DX009 (ip), vehicle: Klucel (hydroxypropylcellulose) (HPC)): 106 % of control and 115 % of control | T/C (dose: 25.0 mg/kg/injection, schedule: Q01DX009 (ip), vehicle: Klucel (hydroxypropylcellulose) (HPC)): 100 % of control and 118 % of control | T/C (dose: 50.0 mg/kg/injection, schedule: Q01DX009 (ip), vehicle: Klucel (hydroxypropylcellulose) (HPC)): 91 % of control

O=[N+]([O-])c1cccc2c1CCCC2
T/C [3]: 100 % of control | T/C [4]: 109 % of control | T/C [5]: 90 % of control

CC1OC(=O)C(C)C1=O (stereo not drawn)
T/C (dose: 50.0 mg/kg/injection, schedule: Q01DX005 (ip), vehicle: saline): 104 % of control | T/C (dose: 100.0 mg/kg/injection, schedule: Q01DX005 (ip), vehicle: saline): 92 % of control | T/C (dose: 200.0 mg/kg/injection, schedule: Q01DX005 (ip), vehicle: saline): 113 % of control
